Measured values from US9604936B2, “Besylate salt of a BTK inhibitor” (Celgene Avilomics Research, Inc., priority 2010, dated 2017).
Like-named read-outs stand apart in the source and are kept apart here. One block for each compound: values may come before it.

Assays:
B-cell proliferation [1] = conditions: in vitro; cited from earlier work
BTK = BTK (Homo sapiens, UniProt Q06187); conditions: enzymatic and cellular assays; cited from earlier work
B-cell proliferation [2] = conditions: in vivo; cited from earlier work
[3] = Solubility of Compound 2 by manual dilution combined with visual observation; format: physicochemical; conditions: thermodynamic from solid
Protocol: Solubility of Compound 2, at room temperature, was measured in seventeen solvents and two solvent mixtures by manual dilution combined with visual observation.

BTK, sequence (Q06187 whole entry, species assumed): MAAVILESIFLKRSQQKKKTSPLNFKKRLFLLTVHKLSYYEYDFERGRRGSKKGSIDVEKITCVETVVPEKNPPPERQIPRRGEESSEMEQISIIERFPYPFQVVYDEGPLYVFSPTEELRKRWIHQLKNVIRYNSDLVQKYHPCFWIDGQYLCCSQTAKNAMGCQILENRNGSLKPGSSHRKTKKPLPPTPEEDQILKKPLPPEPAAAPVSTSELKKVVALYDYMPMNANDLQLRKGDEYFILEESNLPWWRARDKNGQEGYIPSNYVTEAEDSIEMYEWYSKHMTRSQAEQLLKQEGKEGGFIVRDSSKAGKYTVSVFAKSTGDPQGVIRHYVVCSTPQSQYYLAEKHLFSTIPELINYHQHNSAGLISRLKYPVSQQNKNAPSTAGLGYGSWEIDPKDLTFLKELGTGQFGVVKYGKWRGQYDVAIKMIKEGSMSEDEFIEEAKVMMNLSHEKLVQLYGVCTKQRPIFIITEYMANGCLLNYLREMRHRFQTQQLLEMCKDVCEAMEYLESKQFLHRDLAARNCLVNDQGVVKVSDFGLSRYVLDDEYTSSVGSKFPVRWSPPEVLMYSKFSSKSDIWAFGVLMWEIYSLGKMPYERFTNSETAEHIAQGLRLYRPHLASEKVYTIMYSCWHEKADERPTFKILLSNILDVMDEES

Compound: C=CC(=O)Nc1cccc(Nc2nc(Nc3ccc(OCCOC)cc3)ncc2F)c1 [Compound 1, N-(3-(5-fluoro-2-(4-(2-methoxyethoxy)phenylamino)pyrimidin-4-ylamino)phenyl)acrylamide]
inhibition of B-cell proliferation (B-cell proliferation [1]): inhibit B-cell proliferation
inhibition of BTK (BTK): covalent, irreversible inhibition of BTK
inhibition of B-cell proliferation (B-cell proliferation [2]): inhibit B-cell proliferation

solubility ([3]; aqueous with cosolvent or surfactant or cyclodextrin, 1:1 DMF:H2O, room temperature): 71 to 106 mg/mL
solubility ([3]; aqueous with cosolvent or surfactant or cyclodextrin, 3:7 DMF:H2O, room temperature): 16 to 18 mg/mL
solubility ([3]; organic solvent or mixture, 1,4-dioxane, room temperature): < 1 mg/mL
solubility ([3]; organic solvent or mixture, Acetone, room temperature): ~2.5 mg/mL
solubility ([3]; organic solvent or mixture, Anisole, room temperature): < 1 mg/mL
solubility ([3]; organic solvent or mixture, Benzyl alcohol, room temperature): 97 to 194 mg/mL
solubility ([3]; organic solvent or mixture, CH2Cl2, room temperature): < 1 mg/mL
solubility ([3]; organic solvent or mixture, CH3CN, room temperature): ~2 mg/mL
solubility ([3]; organic solvent or mixture, DMF, room temperature): > 184 mg/mL
solubility ([3]; organic solvent or mixture, Ethanol, room temperature): ~2 mg/mL
solubility ([3]; organic solvent or mixture, Ethyl Acetate, room temperature): < 1 mg/mL
solubility ([3]; organic solvent or mixture, Isopropanol, room temperature): < 1 mg/mL
solubility ([3]; organic solvent or mixture, Methanol, room temperature): 26 to 29 mg/mL
solubility ([3]; organic solvent or mixture, Pyridine, room temperature): > 234 mg/mL
solubility ([3]; organic solvent or mixture, TBME, room temperature): < 1 mg/mL
solubility ([3]; organic solvent or mixture, THF, room temperature): ~2 mg/mL
solubility ([3]; organic solvent or mixture, Toluene, room temperature): < 1 mg/mL
solubility ([3]; Water, room temperature): < 1 mg/mL
Compound: C=CC(=O)Nc1cccc(Nc2nc(Nc3ccc(OCCOC)cc3)ncc2F)c1.O=S(=O)(O)c1ccccc1 [Compound 2]
